Experimental data: patent publication US20230095509A1, “NON-FIBRILLAR HEMOGLOBIN S OLIGOMERS AND METHODS TO IDENTIFY MODULATORS OF HEMOGLOBIN S POLYMERIZATION” (REGENTS OF THE UNIVERSITY OF MINNESOTA, priority 2021, published 2023)
Entries after “also recorded” stand apart in the source; their conditions may differ.

How the values were obtained:
[1] = molecular target: T1, deoxyHbS oligomers (HbS-rhodamine red / HbS-Cy5) (Homo sapiens, UniProt P68871+P69905, E7V); experiment: Fluorescence lifetime (FLT) FRET assay of deoxyHbS oligomerization (LOPAC screen and dose response); format: biochemical; settings: for FRET efficiency in dose response: 0.1 to 1000 μM, 2 hours at room temperature, then degassed, FIG. 4B; for FRET efficiency of HbS under deoxy conditions: known polymerization inhibitors as controls, FIG. 1D
T1 construct: purchased Sigma
Procedure: Development of HTS platform for identification of small molecules that inhibit in vitro HbS nucleation: Sickle hemoglobin (HbS) (sigma) was labeled with either fluorescent donor (rhodamine red) or acceptor (Cy5) dyes (Thermo fisher scientific) via a cysteine thiol group. For labeling, lyophilized HbS (10 mg/ml) was dissolved in PBS (Sigma) and then centrifuged at 13000 g for five minutes at 4° C. to remove the debris. After centrifugation protein sample was incubated with TCEP (0.5-1 mM) for 20 minutes at room temperature to reduce the cysteine side-chain. This protein mixture was incubated with 1.5 mM dye (dissolved in DMSO or water) for two hours in the dark at room temperature or overnight at 4° C. Unreacted free dye was removed by dialysis against PBS. The degree of labeling was calculated by comparing the absorption of the fluorophore conjugated hemoglobin at 280 nm to the absorbance of the dye at its maximum wavelength. The dye concentration was measured by absorbance, using extinction coefficients of 250,000 M −1 cm -1 for Cy5 conjugates and 88000 M −1 cm -1 for Rhodamine Red conjugates.
High-Throughput Screening of LOPAC Library to Identify Compounds That Inhibit HbS Oligomerization Under Deoxy Condition: The LOPAC compounds (Thermo Fisher Scientific) were received in 96-well plates. Assay plates were prepared by transferring 5 nL of the 10 mM compound stocks or DMSO from the source plates to 1536-well black polypropylene plates (Greiner), using an Echo 550 acoustic dispenser (Labcyte). During screening, donor sample (HbS/Rhodamine Red) was mixed with acceptor (HbS/Cy5) at 1:5 ratios. Then protein samples were dispensed (5 μL, 25 μM) by a Multidrop Combi Reagent Dispenser (Thermo Fisher Scientific) into the 1536-well assay plates containing the compounds and incubated at room temperature for two hours. After incubation, protein samples were degassed for 10-15 minutes using vacuum argon degassing method. Lifetime measurements were taken by the fluorescence lifetime plate reader (Fluorescence Innovations, Inc).
Fluorescence Data Acquisition: We tested the functionality of the HbS FRET pair by measuring lifetimes of oxy-and deoxy HbA and HbS using a fluorescence lifetime plate reader (FIG. 3A). Lifetimes are reciprocally related to FRET, so a decrease in lifetime corresponds to an increase in FRET. Donor fluorescence was excited with a 532 nm laser (Teem Photonics SNG-20F-100, Meylan, France), delivering pulses of -0.3 μJ energy at a 20 kHz repetition rate, and emission was filtered with 546 nm long pass and 586/20 nm band pass filters. This filter was selected to exclude acceptor fluorescence, as only the lifetime of the donor fluorescent protein is required to calculate FRET (Equation (1)). The photomultiplier tube (PMT) voltage was adjusted so that the peak signals of the instrument response function (IRF) and FRET biosensor were similar.
High-Throughput Screening Data Analysis: Time resolve-fluorescence waveforms for each well were fitted with single-exponential decays using least-squares minimization global analysis software (Petersen et al., F2014, Rev Sci Instrum 85, 113101). FRET efficiency (E) was determined as the fractional decrease of donor lifetime (T_D ), due to the presence of acceptor fluorophore (T_DA) using equation 1: […]
These drug compounds were dissolved in DMSO to make 20 mM stock solution. Hits were screened at seven different concentrations. Protein samples were dispensed into the 96-well assay plates and incubated with hit compounds at room temperature for two hours. After incubation, protein samples were degassed for 10 minutes using vacuum argon degassing method. Lifetime measurements were taken by the fluorescence lifetime plate reader (Fluorescence Innovations, Inc).

[2] = test system: RBC from healthy donors (genotype HbAA); experiment: Microfluidic measurement of RBC oxygen saturation (Quantitative Absorption Cytometry, P50); format: cell-based, human; settings: for P50 (hemoglobin oxygen binding affinity) relative to control: 500 μM, RBC from 4 healthy donors, 1 hr at 37C at 25% hematocrit, diluted to 1% hematocrit with drug, FIG. 10
Procedure: Measurement of hemoglobin oxygen saturation in RBC from 4 healthy donors (genotype HbAA). RBC at 25% hematocrit were incubated with 500 uM voxelotor, chlormezanone, gabazine, or DMSO (control) for 1 hr at 37C and then diluted to 1% hematocrit with drug.
Microfluidic Measurement of RBC Oxygen Saturation: The Quantitative Absorption Cytometry assay described previously (Di Caprio et al., 2019, Proc Natl Acad Sci USA 116, 25236-25242; Di Caprio et al., 2015, Proc Natl Acad Sci USA 112, 9984-9989), takes images of single red blood cells (RBC) under alternating 410 nm and 430 nm LEDs. Due to the unique absorption spectra of oxy and deoxy hemoglobin the transmitted light at 410 nm and 430 nm permits measurement of the single cell saturation can be calculated. The cells are perfused through a microfluidic device with oxygen control that permits measurement of the oxygen saturation of a population of RBC under defined oxygen tension. The polydimethysiloxane (PDMS) microfluidic device for this assay comprises two layers- a gas layer and a blood layer bonded to a glass coverslip. These two layers are separated by 100 μm of PDMS. The gas layer allows for precise control of oxygen tension that will diffuse to the blood layer; the blood layer contains a 30 mm diffusion section to allow red blood cells to reach steady state saturation and a 5 mm observation section to imaging RBCs.
To prepare RBC for measurement, blood samples were washed and resuspended in 10% w/v BSA in PBS, and 0.5 μL of 100 mM therapeutic in DMSO was added to the sample. The sample was then incubated on a shaker plate at 37° C. for one hour. After incubation samples were washed again and 10 μL packed red blood cells was added to a solution of 288 μL 25% Human Serum Albumin (HAS) solution (Gemini Bio).
In this assay, we prepared samples identically to the preparation for blood flow by incubating with drug at 25% hematocrit, and then we diluted the samples to 1% hematocrit with […] drug in the dilution buffer.

SMILES	FRET efficiency in dose response [1]	P50 (hemoglobin oxygen binding affinity) relative to control [2]	IC50 [1]	effect on FRET efficiency in the LOPAC pilot screen ([1]; LOPAC screen, mean of three independent screens, FIG. 4A)	FRET efficiency of HbS under deoxy conditions [1]	FRET efficiency of HbS under deoxy conditions ([1]; listed as Voxelotor)	modification of hemoglobin ([2]; samples diluted to 1% hematocrit with drug in the dilution buffer)
COc1ccc(-c2ccc(=N)n(CCCC(=O)O)n2)cc1 [gabazine]	decreased FRET efficiency in a dose-dependent manner	neither chlormezanone nor gabazine significantly shifted P50; also recorded: no significant (p>0.05) change in P50					
CN1C(=O)CCS(=O)(=O)C1c1ccc(Cl)cc1 (stereo not shown) [chlormezanone]	decreased FRET efficiency in a dose-dependent manner	neither chlormezanone nor gabazine significantly shifted P50; also recorded: no significant (p>0.05) change in P50	> 100 µM	by far the largest effect			
CC(C)n1nccc1-c1ncccc1COc1cccc(O)c1C=O [voxelotor]		significantly (p<0.05) decreases P50; also recorded: large shift in P50; also recorded: significantly decreased the P50			decreased the FRET efficiency	reduced FRET efficiency	~100%
